Test system: participants with SCD
Assay: Preliminary blood analysis of SCD patients given oral Compound I, 300 mg QD for 14 days then 200 mg QD through Week 12 (Part A Sub Study 2);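 on Bilirubin total: values in mg/dL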
Format: in vivo, human
Method: Part A of this study is a Phase 2 randomized, open-label, dose-finding study in approximately 60 adult participants with SCD. The primary objective of Part A of this study is to assess the effects of Compound I in adult participants with SCD as measured by change in hemoglobin.
Participants are screened for eligibility in the study from Day −28 through Day −1. Eligible participants are randomized on Day 1 based on a 1:1 (100 mg: 150 mg) allocation and will receive their initial dose (loading dose) of Compound I. After completion of Day 1 assessments and subsequent loading doses, participants will continue with administration of their maintenance dose daily through Week 12.
Some newly enrolled participants in Part A will receive a loading dose regimen of 300 mg of Compound I once daily over the first 14 days. Participants will then receive 200 mg once daily maintenance doses through Week 12.

Absolute neutrophil (Patient A, Day 1, Day 0 (screening) 1.7): 2.2 K/μL
Alkaline phosphatase (Patient A, Day 1, Day 0 (screening) 143.5): 152.7 IU/L
Platelet count (Patient A, Day 1, Day 0 (screening) 148): 219 K/μL
Absolute neutrophil (Patient A, Day 15, Day 0 (screening) 1.7): 2.2 K/μL
Alkaline phosphatase (Patient A, Day 15, Day 0 (screening) 143.5): 156.7 IU/L
Platelet count (Patient A, Day 15, Day 0 (screening) 148): 239 K/μL
Absolute neutrophil (Patient A, Day 29, Day 0 (screening) 1.7): 0.5 K/μL
Platelet count (Patient A, Day 29, Day 0 (screening) 148): 211 K/μL
Absolute neutrophil (Patient A, Day 43, Day 0 (screening) 1.7): 0.6 K/μL
Alkaline phosphatase (Patient A, Day 43, Day 0 (screening) 143.5): 160.8 IU/L
Platelet count (Patient A, Day 43, Day 0 (screening) 148): 249 K/μL
Absolute neutrophil (Patient A, Day 57, Day 0 (screening) 1.7): 3.5 K/μL
Alkaline phosphatase (Patient A, Day 57, Day 0 (screening) 143.5): 198.2 IU/L
Platelet count (Patient A, Day 57, Day 0 (screening) 148): 153 K/μL
Absolute neutrophil (Patient A, Day 85, Day 0 (screening) 1.7): 1.1 K/μL
Alkaline phosphatase (Patient A, Day 85, Day 0 (screening) 143.5): 150.6 IU/L
Platelet count (Patient A, Day 85, Day 0 (screening) 148): 146 K/μL
Absolute neutrophil (Patient B, Day 1, Day 0 (screening) 6.9): 7.3 K/μL
Alkaline phosphatase (Patient B, Day 1, Day 0 (screening) 49.3): 52.4 IU/L
Platelet count (Patient B, Day 1, Day 0 (screening) 360): 344 K/μL
Absolute neutrophil (Patient B, Day 8, Day 0 (screening) 6.9): 4.1 K/μL
Alkaline phosphatase (Patient B, Day 8, Day 0 (screening) 49.3): 58.5 IU/L
Platelet count (Patient B, Day 8, Day 0 (screening) 360): 411 K/μL
Absolute neutrophil (Patient B, Day 29, Day 0 (screening) 6.9): 4.1 K/μL
Alkaline phosphatase (Patient B, Day 29, Day 0 (screening) 49.3): 67.6 IU/L
Platelet count (Patient B, Day 29, Day 0 (screening) 360): 333 K/μL
Absolute neutrophil (Patient B, Day 43, Day 0 (screening) 6.9): 3.7 K/μL
Compound: O=Cc1c(O)cccc1OC[C@@H]1COCCN1C(=O)c1cccnc1CCO [Compound I, (S)-2-hydroxy-6-((4-(2-(2-hydroxyethyl)nicotinoyl)morpholin-3-yl)methoxy)benzaldehyde]
Bilirubin direct (Patient A, Day 1, Day 0 (screening) 0.48): <0.01 mg/dL
Reticulocytes (Patient A, Day 1, Day 0 (screening) 2.2): 5.2%
Bilirubin total (Patient A, Day 1, Day 0 (screening) 2.4): 2.16 mg/dL
Hemoglobin (HGB) (Patient A, Day 1, Day 0 (screening) 7.0): 8.8 g/dL
Hematocrit (HCT) (Patient A, Day 1, Day 0 (screening) 20.4): 25.1%
Alanine Aminotransferase (ALT) (Patient A, Day 1, Day 0 (screening) 26.1): 28.2 IU/L
Aspartate Aminotransferase (AST) (Patient A, Day 1, Day 0 (screening) 56.0): 60.0 IU/L
Lactate dehydrogenase (LDH) (Patient A, Day 1, Day 0 (screening) 358): 339 IU/L
Bilirubin direct (Patient A, Day 15, Day 0 (screening) 0.48): <0.01 mg/dL
Reticulocytes (Patient A, Day 15, Day 0 (screening) 2.2): 3.0%
Bilirubin total (Patient A, Day 15, Day 0 (screening) 2.4): 1.06 mg/dL
Hemoglobin (HGB) (Patient A, Day 15, Day 0 (screening) 7.0): 10.6 g/dL
Hematocrit (HCT) (Patient A, Day 15, Day 0 (screening) 20.4): 30.9%
Alanine Aminotransferase (ALT) (Patient A, Day 15, Day 0 (screening) 26.1): 26.1 IU/L
Aspartate Aminotransferase (AST) (Patient A, Day 15, Day 0 (screening) 56.0): 43.1 IU/L
Lactate dehydrogenase (LDH) (Patient A, Day 15, Day 0 (screening) 358): 243 IU/L
Reticulocytes (Patient A, Day 29, Day 0 (screening) 2.2): 2.0%
Hemoglobin (HGB) (Patient A, Day 29, Day 0 (screening) 7.0): 12.2 g/dL
Hematocrit (HCT) (Patient A, Day 29, Day 0 (screening) 20.4): 35.9%
Bilirubin direct (Patient A, Day 43, Day 0 (screening) 0.48): 0.28 mg/dL
Bilirubin indirect (Patient A, Day 43, Day 0 (screening) 1.92): 0.78 mg/dL
Reticulocytes (Patient A, Day 43, Day 0 (screening) 2.2): 1.5%
Bilirubin total (Patient A, Day 43, Day 0 (screening) 2.4): 1.06 mg/dL
Hemoglobin (HGB) (Patient A, Day 43, Day 0 (screening) 7.0): 14.9 g/dL
Hematocrit (HCT) (Patient A, Day 43, Day 0 (screening) 20.4): 43.3%
Alanine Aminotransferase (ALT) (Patient A, Day 43, Day 0 (screening) 26.1): 28.9 IU/L
Aspartate Aminotransferase (AST) (Patient A, Day 43, Day 0 (screening) 56.0): 44.1 IU/L
Lactate dehydrogenase (LDH) (Patient A, Day 43, Day 0 (screening) 358): 193 IU/L
Bilirubin direct (Patient A, Day 57, Day 0 (screening) 0.48): 0.38 mg/dL
Bilirubin indirect (Patient A, Day 57, Day 0 (screening) 1.92): 2.39 mg/dL
Reticulocytes (Patient A, Day 57, Day 0 (screening) 2.2): 0.1%
Bilirubin total (Patient A, Day 57, Day 0 (screening) 2.4): 2.77 mg/dL
Hemoglobin (HGB) (Patient A, Day 57, Day 0 (screening) 7.0): 12.4 g/dL
Hematocrit (HCT) (Patient A, Day 57, Day 0 (screening) 20.4): 36.3%
Alanine Aminotransferase (ALT) (Patient A, Day 57, Day 0 (screening) 26.1): 66.6 IU/L
Aspartate Aminotransferase (AST) (Patient A, Day 57, Day 0 (screening) 56.0): 82.9 IU/L
Lactate dehydrogenase (LDH) (Patient A, Day 57, Day 0 (screening) 358): 345 IU/L
Bilirubin direct (Patient A, Day 85, Day 0 (screening) 0.48): 0.08 mg/dL
Bilirubin indirect (Patient A, Day 85, Day 0 (screening) 1.92): 2.81 mg/dL
Reticulocytes (Patient A, Day 85, Day 0 (screening) 2.2): 5.2%
Bilirubin total (Patient A, Day 85, Day 0 (screening) 2.4): 2.89 mg/dL
Hemoglobin (HGB) (Patient A, Day 85, Day 0 (screening) 7.0): 11.0 g/dL
Hematocrit (HCT) (Patient A, Day 85, Day 0 (screening) 20.4): 31.0%
Alanine Aminotransferase (ALT) (Patient A, Day 85, Day 0 (screening) 26.1): 28.2 IU/L
Aspartate Aminotransferase (AST) (Patient A, Day 85, Day 0 (screening) 56.0): 54.0 IU/L
Lactate dehydrogenase (LDH) (Patient A, Day 85, Day 0 (screening) 358): 354 IU/L
Bilirubin direct (Patient B, Day 1, Day 0 (screening) 0.18): 0.18 mg/dL
Bilirubin indirect (Patient B, Day 1, Day 0 (screening) 4.66): 4.17 mg/dL
Bilirubin total (Patient B, Day 1, Day 0 (screening) 4.84): 4.35 mg/dL
Hemoglobin (HGB) (Patient B, Day 1, Day 0 (screening) 8.3): 8.5 g/dL
Reticulocytes (Patient B, Day 1, Day 0 (screening) 11.5): 9.5%
Alanine Aminotransferase (ALT) (Patient B, Day 1, Day 0 (screening) 22.0): 22.0 IU/L
Hematocrit (HCT) (Patient B, Day 1, Day 0 (screening) 23.5): 24.7%
Aspartate Aminotransferase (AST) (Patient B, Day 1, Day 0 (screening) 41.1): 39.1 IU/L
Lactate dehydrogenase (LDH) (Patient B, Day 1, Day 0 (screening) 371): 351 IU/L
Bilirubin direct (Patient B, Day 8, Day 0 (screening) 0.18): 0.08 mg/dL
Bilirubin indirect (Patient B, Day 8, Day 0 (screening) 4.66): 2.32 mg/dL
Bilirubin total (Patient B, Day 8, Day 0 (screening) 4.84): 2.4 mg/dL
Hemoglobin (HGB) (Patient B, Day 8, Day 0 (screening) 8.3): 11.2 g/dL
Reticulocytes (Patient B, Day 8, Day 0 (screening) 11.5): 5.4%
Alanine Aminotransferase (ALT) (Patient B, Day 8, Day 0 (screening) 22.0): 21.3 IU/L
Hematocrit (HCT) (Patient B, Day 8, Day 0 (screening) 23.5): 33.1%
Aspartate Aminotransferase (AST) (Patient B, Day 8, Day 0 (screening) 41.1): 42.1 IU/L
Lactate dehydrogenase (LDH) (Patient B, Day 8, Day 0 (screening) 371): 385 IU/L
Bilirubin direct (Patient B, Day 29, Day 0 (screening) 0.18): 0.18 mg/dL
Bilirubin indirect (Patient B, Day 29, Day 0 (screening) 4.66): 0.88 mg/dL
Bilirubin total (Patient B, Day 29, Day 0 (screening) 4.84): 1.06 mg/dL
Hemoglobin (HGB) (Patient B, Day 29, Day 0 (screening) 8.3): 14.4 g/dL
Reticulocytes (Patient B, Day 29, Day 0 (screening) 11.5): 1.2%
Alanine Aminotransferase (ALT) (Patient B, Day 29, Day 0 (screening) 22.0): 17.2 IU/L
Hematocrit (HCT) (Patient B, Day 29, Day 0 (screening) 23.5): 42.8%
Aspartate Aminotransferase (AST) (Patient B, Day 29, Day 0 (screening) 41.1): 29.1 IU/L
Lactate dehydrogenase (LDH) (Patient B, Day 29, Day 0 (screening) 371): 195 IU/L
Bilirubin direct (Patient B, Day 43, Day 0 (screening) 0.18): 0.18 mg/dL
Bilirubin indirect (Patient B, Day 43, Day 0 (screening) 4.66): 0.51 mg/dL
Bilirubin total (Patient B, Day 43, Day 0 (screening) 4.84): 0.69 mg/dL
Hemoglobin (HGB) (Patient B, Day 43, Day 0 (screening) 8.3): 15.2 g/dL
Reticulocytes (Patient B, Day 43, Day 0 (screening) 11.5): 0.8%
Alanine Aminotransferase (ALT) (Patient B, Day 43, Day 0 (screening) 22.0): 16.5 IU/L
